Assay results from patent US10076525B2, “Sex steroid precursors alone or in combination with selective estrogen receptor modulators for the prevention and treatment of dyspareunia in postmenopausal women” (ENDORECHERCHE, INC., priority 2004, dated 2018).
Where a name gives a salt, the structure may show the parent alone. One block for each compound: values may come before it.

What was measured:
[1] = tested on: rat vagina; test: Histomorphometry: thickness of vaginal layers at the fifth segment; type: in vivo; conditions: OVX rats, 36 wk, fifth segment, mean±SEM
Text: (§1) Animals from the intact and OVX control groups received the vehicle alone.
(§2) Twenty-four hours after the last dosing, overnight fasted animals were sacrificed under isoflurane anesthesia by exsanguination at the abdominal aorta (9 animals per group) or by intracardiac perfusion with 10% neutral buffered formalin (5 animals per group). Vaginae from non-perfused animals were collected and weighed, while the vaginae collected from perfused animals were marked with black ink on the ventral side, and then trimmed as described below.
(§3) The entire vagina of each perfused animal was post-fixed in 10% neutral buffered formalin.
Measurements of the different vaginal layers were performed on the fifth segment (FIG. 1), which is approximately halfway between the middle region and the portio vaginalis uteri (segment 7). […] Images were captured with a DC-330 3CCD color camera (Dage-MTI, Michigan City, Ind., USA) and quantified using Image-Pro Plus 3.0 software (Media Cybernetics, Silver Spring, Md., USA). Thus, using a ×5 objective (Leica Microsystems, Willowdale, Ont., Canada), 3 to 4 thickness measurements per layer were obtained from representative areas of the epithelium and muscularis, and for the three vaginal layers together. The total vaginal thickness, the thickness of the epithelium and the thickness of the muscularis were thus measured. The thickness of the lamina propria was obtained by subtracting the thickness of the epithelium and muscularis from total vaginal thickness.
(§4) Data are presented as means±SEM of 8-9 animals per group for vaginal weight or 5 animals per group for vaginal layer thickness determinations. Statistical significance was determined according to the multiple-range test of Duncan-Kramer (Kramer, 1956, Biometrics, 12: 307-310).

[2] = tested on: rat vagina; test: Histological evaluation of epithelium, lamina propria and muscularis in the seven rat vaginal segments; type: in vivo; conditions: OVX rats, 36 wk
Text: The animals were housed individually and were allowed free access to water and rodent food (Lab Diet 5002, Ralston Purina, St-Louis, Mo.).
as §1, §2, §3
The degree of compactness of collagen fibers in the vagina was categorized as low, moderate and high (FIGS. 6A-6C, respectively), as observed in the area proximal to the epithelium. <<Low>> and <<moderate compactness>> were associated with the presence of coarse collagen fibers loosely or less loosely aggregated together, respectively, while <<high compactness>> was the term used to describe tightly packed fine collagen fibers, displaying a smooth, textured appearance. In all the animals, there were relatively few fibrocytes in proportion to the amount of collagen, and they appeared predominantly flattened and shrunken.

[3] = tested on: AR; test: Immunohistochemistry of AR in fifth vaginal segment; type: in vivo, rat; conditions: OVX rats, 36 wk
Experimental: as §1
(§5) Immunostaining was performed using Zymed SP kits (San Francisco, Calif.). Paraffin sections (4 μm) were deparaffinized in toluene and rehydrated through ethanol. Endogenous peroxidase activity was eliminated by preincubation with 3% H2O2 in methanol for 30 min. A microwave retrieval technique using citrate buffer (Tacha and Chen, 1994) was applied. After cooling the slides, non-specific binding was blocked using 10% goat serum for 20 min. Sections were then incubated for 1.5 h at room temperature with ERα (AB-1, Calbiochem, California), AR (N-20, Santa Cruz Biotechnology, California) or PR (Ab-4, NeoMarkers, California) antibodies, at 1:200, 1:250 and 1:250 respectively. After washing in PBS buffer, sections were incubated with biotinylated anti-rabbit secondary antibody for 10 min and thereafter with streptavidin-peroxidase for another 10 min. Diaminobenzidine was used as the chromogen to visualize the biotin/streptavidin-peroxidase complex, under microscope monitoring. Counterstaining was performed using #2 Gill's hematoxylin for 30 sec. For controls, immunoabsorption with an excess of the peptide used to raise the antibody, or substitution with non immune rabbit IgG, was performed.

[4] = tested on: rat vagina; test: Vaginal weight after 36 weeks of treatment; type: in vivo; conditions: OVX rats, 36 wk, versus OVX
Text: as §1, §2, §4

[5] = tested on: PR; test: Immunohistochemistry of PR in fifth vaginal segment; type: in vivo, rat; conditions: OVX rats, 36 wk
Experimental: as §1, §5

[6] = tested on: rat vagina; test: Comparison of SERMs: vaginal epithelium morphology in the OVX rat (Example 2); conditions: OVX rats, 0.5 mg/kg oral daily
Experimental: Ten to twelve week-old female Sprague-Dawley rats (Crl:CD(SD)Br) (Charles River Laboratory, St-Constant, Canada) weighing 215-265 g at time of ovariectomy were used. The animals were housed individually in an environmentally-controlled room (temperature: 22±3° C.; humidity: 50±20%; 12-h light-12-h dark cycles, lights on at 07:15 h). The animals were allowed free access to tap water and a certified rodent feed (Lab Diet 5002 (pellet), Ralston Purina, St-Louis, Mo.).
Different experiments were performed: two 20-day and two 8-month studies. In each of the two first experiments, the animals were randomly distributed between 3 groups of 13 or 14 animals as follows: 1) Intact control; 2) Ovariectomized (OVX) control; 3) OVX+raloxifene (0.5 mg/kg), or, 3) OVX+LY 363381 (0.5 mg/kg). […] In the other 8-month study, the animals were randomly distributed between 3 groups of 10-11 animals as follows: 1) Intact control; 2) Ovariectomized (OVX) control; 3) OVX+lasofoxifene (0.5 mg/kg). […] The tested compounds were then given once daily by oral gavage as a suspension in 0.4% methylcellulose (0.5 ml/rat) from day 1 to day 20 of the study or from day 1 to week 32 of the study.
Twenty-four hours after the last dosing, the animals were sacrificed under isoflurane anesthesia by exsanguination. The vaginae were collected and immersed in 10% neutral buffered formalin immediately after resection. […] The segments were then routinely processed and embedded in paraffin blocks. When appropriate, all the segments were positioned in the paraffin block in a sequence corresponding to their original anatomical position and oriented perpendicular to the surface of the block, thus allowing the segments to be cut in cross-sections. For each animal, a 4 μm-thick paraffin section was cut and stained with haematoxylin-eosin for morphological examination.

[7] = tested on: estrogen receptor; test: Testing of antiestrogens for SERM function
[8] = Acolbifene 2.5, Premarin 0.5 mg/kg oral, DHEA 80 mg/kg dorsal skin, segment 1

SMILES: CC1=C(c2ccc(O)cc2)[C@H](c2ccc(OCCN3CCCCC3)cc2)Oc2cc(O)ccc21.Cl [Acolbifene]
total vaginal wall thickness ([1]; OVX 128±3, intact 262±39): 108±8 μm | lamina propria thickness ([1]; total minus epithelium and muscularis, OVX 76±2, intact 135±28): 60±8 μm | compactness of collagen fibers (lamina propria) [2, 8]: M-M | lamina propria thickness [2, 8]: M-M | epithelium morphology ([2]; Acolbifene 2.5, Premarin 0.5 mg/kg oral, DHEA 80 mg/kg dorsal skin, segment 2): SCM-A | epithelium morphology ([2]; Acolbifene 2.5, Premarin 0.5 mg/kg oral, DHEA 80 mg/kg dorsal skin, segment 3): SCM-A | epithelium morphology ([2]; Acolbifene 2.5, Premarin 0.5 mg/kg oral, DHEA 80 mg/kg dorsal skin, segment 4): SCM-A | epithelium morphology ([2]; Acolbifene 2.5, Premarin 0.5 mg/kg oral, DHEA 80 mg/kg dorsal skin, segment 5): SCM-A | epithelium morphology ([2]; Acolbifene 2.5, Premarin 0.5 mg/kg oral, DHEA 80 mg/kg dorsal skin, segment 6): SCM-A | epithelium morphology ([2]; Acolbifene 2.5, Premarin 0.5 mg/kg oral, DHEA 80 mg/kg dorsal skin, segment 7): SCM-A | epithelium thickness of segment 1 (external opening) ([2]; OVX controls 4-6 layers): 9-11 cell layers | animals showing signs of minimal inflammation ([2]; moderate to severe inflammation in all OVX animals): three out of five | AR: labeling intensity ([3]; epithelium): ++ | AR: semi-quantitative evaluation of labeled nuclei ([3]; epithelium): 2 | AR: labeling intensity ([3]; lamina propria): +++ | AR: semi-quantitative evaluation of labeled nuclei ([3]; lamina propria): 1 | AR: labeling intensity ([3]; muscularis): +++ | AR: semi-quantitative evaluation of labeled nuclei ([3]; muscularis): 1 | effect on vaginal weight [4]: no effect | PR: semi-quantitative evaluation of labeled nuclei ([5]; epithelium): 0 | PR: semi-quantitative evaluation of labeled nuclei ([5]; lamina propria): 0 | PR: semi-quantitative evaluation of labeled nuclei ([5]; muscularis): 0 | mucous cell layer(s) overlying the basal cell layer, middle of the vagina ([6]; 8-month study): one

SMILES: COc1ccc(-c2sc3cc(O)ccc3c2Oc2ccc(OCCN3CCCCC3)cc2)cc1 [Arzoxifene]
function as SERM [7]: found to function as SERMs

function as SERM [7]: found to function as SERMs
SMILES: CC/C(=C(/c1ccc(OCCN(C)C)cc1)c1cccc(O)c1)c1ccccc1 [Droloxifene]

SMILES: CC1=C(c2ccc(OC(=O)C(C)(C)C)cc2)[C@H](c2ccc(OCCN3CCCCC3)cc2)Oc2cc(OC(=O)C(C)(C)C)ccc21 [EM-800]
function as SERM [7]: found to function as SERMs

SMILES: Cc1c(-c2ccc(O)cc2)n(Cc2ccc(OCCN3CCCCC3)cc2)c2ccc(O)cc12 [ERA-923]
mucous cell layer(s) overlying the basal cell layer, middle of the vagina ([6]; 8-month study): one

SMILES: CC/C(=C(\c1ccccc1)c1ccc(/C=C/C(=O)O)cc1)c1ccccc1 [GW-5638]
function as SERM [7]: found to function as SERMs

SMILES: C[C@]12CC[C@@H]3c4ccc(O)cc4C[C@@H](CCCCCCCCC[S+]([O-])CCCC(F)(F)C(F)(F)F)[C@H]3[C@@H]1CC[C@@H]2O (stereo partly shown) [ICI 182,780]
function as SERM [7]: found not to function as SERM

SMILES: COc1ccc(-c2sc3cc(O)ccc3c2Oc2ccc(OCCN3CCCCC3)cc2)cc1 [LY 363381]
mucous cell layer(s) overlying the basal cell layer, middle of the vagina ([6]; 20-day study): many

function as SERM [7]: found to function as SERMs
SMILES: O=C(c1ccc(OCCN2CCCCC2)cc1)c1c(-c2ccc(O)cc2)sc2cc(O)ccc12 [Raloxifene]
mucous cell layer(s) overlying the basal cell layer, middle of the vagina ([6]; 20-day study): many

SMILES: Cc1c(-c2ccc(O)cc2)n(Cc2ccc(OCCN3CCCCCC3)cc2)c2ccc(O)cc12 [TSE-424]
function as SERM [7]: found to function as SERMs | mucous cell layer(s) overlying the basal cell layer, middle of the vagina ([6]; 8-month study): one

SMILES: CC/C(=C(\c1ccccc1)c1ccc(OCCN(C)C)cc1)c1ccccc1 [Tamoxifen, (Z)-2-[4-(1,2-diphenyl-1-butenyl)]-N,N-dimethylethanamine]
function as SERM [7]: found to function as SERMs

function as SERM [7]: found to function as SERMs
SMILES: Oc1ccc2c(c1)CC[C@H](c1ccccc1)[C@@H]2c1ccc(OCCN2CCCC2)cc1 [lasofoxifene, (−)-cis-(5R,6S)-6-phenyl-5-[4-(2-pyrrolidin-1-ylethoxy)phenyl]-5,6,7,8-tetrahydronaphthalen-2-ol, D-(−)-tartrate salt]
mucous cell layer(s) overlying the basal cell layer, middle of the vagina ([6]; 8-month study): many
